From patent US7449195B2 (priority 2001, dated 2008)
Where two headings read alike, the source gives them in different places.

Tested on: Phytophthora infestans
Type: in vivo
Conditions: individual active compound, tomato leaves, protective, evaluated after 6 days

SMILES	Efficacy in % of the untreated control (0.05 ppm in the spray liquor) [%]	Efficacy in % of the untreated control (0.1 ppm in the spray liquor) [%]	Efficacy in % of the untreated control (0.2 ppm in the spray liquor) [%]
Cc1ccc(C(C)NC(=O)[C@@H](NC(=O)OC(C)C)C(C)C)cc1 (stereo partly drawn) [II-3, iprovalicarb]	29	53	70
Cc1ccc(-c2c(Cl)nc(C#N)n2S(=O)(=O)N(C)C)cc1 [Ia, cyazofamid]	53	70	82
